# Assay results as given in patent US20250250265A1, “BENZOTHIAZOLE-PHENYLSULFONYL-PIPERIDINE ANALOGS AS ACTIVATORS OF NACYLPHOSPHATIDYLETHANOLAMINE HYDROLYZING PHOSPHOLIPASE D” (priority 2022, published 2025).
# “Also recorded” adds a separate entry of the source.
# Legend:
# [1] = system: bone marrow-derived macrophages (BMDM); test: Efferocytosis assay with bone marrow-derived macrophages and apoptotic Jurkat cells; format: cell-based, mouse; conditions: 10 μM; for effect on efferocytosis by wild-type BMDM: 6 h before assay
# Protocol: Male C57BL6/j wild-type or Napepld^−/− mice were euthanized with isoflurane and hind legs were removed. Marrow was flushed from femurs and tibias using DMEM containing 4.5 g/L glucose and a 26-gauge needle. Cell suspensions were passed over a 40-μm filter, centrifuged at 500×g, and resuspended in 50 ml of DMEM containing 4.5 g/L glucose, 20% L-cell conditioned media, 10% heat-inactivated FBS, and 1% penicillin/streptomycin. 10 ml of cell suspension was plated into each of five 100-mm dishes and incubated for four days at 37° C. and 5% CO2. On day four, non-adherent cells and debris were aspirated from the plates and replaced with fresh media. After 7 days of differentiation, cells were harvested for use in experiments.
# Assays were performed according to previously described protocols. See e.g., Doran et al. J. Clin. Invest. 127(11): 4075-4089 (2017); Proto et al., Immunity 49(4): 666-677 (2018). Bone marrow-derived macrophages were seeded at 0.25×10^6 cells/well in a non-tissue culture-treated 24-well plate and allowed to adhere overnight. Macrophages were treated with various compounds at a final concentration of 10 μM or DMSO as a vehicle for 6 hours prior to each experiment. Jurkat cells were exposed to UV light (254 nm) for 5 minutes to induce apoptosis and then incubated in a 37° C. incubator with 5% CO2 for 2 hours. Surveillance staining of these cells routinely yielded approximately 80-90% apoptosis (Annexin V+) using this method. Apoptotic Jurkat cells were labeled with either CellVue Claret (Millipore Sigma) or Cell Trace Violet (Invitrogen) per the manufacturer's instructions. After staining, cells were resuspended in macrophage medium at a density of […] and 500 μL of this suspension was added to the drug-containing media on the macrophages to achieve a cell ratio of 3:1 Jurkats: macrophages. After incubating for 45 minutes at 37° C. and 5% CO2, the medium was aspirated, and the macrophages were gently washed twice with PBS to remove unbound apoptotic cells. Macrophages were then removed from the plate using Cell Stripper (Sigma), washed, resuspended in staining buffer consisting of 2% FBS in PBS with 2 mM EDTA, and blocked with anti-mouse CD16/32 antibodies for 15 minutes on ice. After blocking, cells were pelleted and resuspended with F4/80. Cells were incubated for 45 minutes on ice in the dark, then washed and resuspended in staining buffer for analysis. Cells were analyzed using an Attune NxT cytometer (Thermo Fisher) and data were analyzed using FlowJo software to quantify the proportion of F4/80^+ macrophages that co-stained for apoptotic cells (% efferocytosis).
# [2] = biological target: T1, recombinant mouse NAPE-PLD (Mus musculus, UniProt Q8BH82); test: In vitro competition assay (LEI-401, VU233, VU534) on recombinant mouse Nape-pld; format: biochemical
# T1 construct: hexahistidine (His6) (C); made in house; host or cells: E. coli
# T1 sequence (Q8BH82 1-396): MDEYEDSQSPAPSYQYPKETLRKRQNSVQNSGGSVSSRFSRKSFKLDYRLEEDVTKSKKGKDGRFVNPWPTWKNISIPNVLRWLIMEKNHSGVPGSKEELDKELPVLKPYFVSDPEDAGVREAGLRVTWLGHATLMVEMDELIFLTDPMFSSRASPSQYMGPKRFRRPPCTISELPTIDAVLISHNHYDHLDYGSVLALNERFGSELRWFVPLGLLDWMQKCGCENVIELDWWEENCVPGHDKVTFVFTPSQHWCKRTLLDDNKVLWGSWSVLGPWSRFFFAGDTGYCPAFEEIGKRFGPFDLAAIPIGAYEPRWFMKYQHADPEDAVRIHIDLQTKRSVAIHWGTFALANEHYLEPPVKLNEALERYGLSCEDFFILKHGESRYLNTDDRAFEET
# Protocol: (§1) A similar in vitro fluorescence Nape-pld activity assay was used for LEI-401 and VU233 competition assays except that this assay was performed using black-walled clear-bottom 96-well plates with 3.5 μM PED-A1 and no N-palmitoyl-dioleoyl-PE used as substrate and read in a BioTek Synergy H1 plate reader with the slope of the fluorescence signal from 0-4 min (linear phase) used as the assay readout. LEI-401, VU233, and VU534 were incubated for 1 h prior to addition of PED-A1. The Michaelis-Menten study used this same assay except with graded concentration of flame-NAPE.
# [3] = biological target: T2, NAPE-PLD activity in primary BMDMϕ (Mus musculus, UniProt Q8BH82); test: NAPE-PLD activity in primary bone marrow derived macrophages; format: cell-based; conditions: VU534 at 10 μM (FIG. 5)
# T2 construct: endogenous in cells; host or cells: primary bone-marrow-derived macrophages (C57BL6/j mice)
# T2 sequence (Q8BH82 1-396): T1 sequence (Q8BH82 1-396)
# [4] = biological target: T1, recombinant mouse NAPE-PLD; test: Michaelis-Menten analysis with flame-NAPE as substrate; format: biochemical
# Protocol: To further understand this effect, a 50-nanosecond molecular dynamic (MD) simulation was performed using AMBER17. The PDQ9:VU534 complex was prepped for simulation using CHARMM-GUI and ff14SB, TIP3P, GAFF2 force fields were employed for proteins, […] molecules, respectively. This simulation predicted that VU534 binding to the interface pocket allosterically alters the catalytic site conformation including reorienting the zinc-hydroxide-zinc complex parallel to the substrate (FIG. 11), consistent with the measured increased kcat.
# as §1
# To confirm the results of the fluorescence-based assays, an orthogonal biochemical Nape-pld assay based on LC/MS was employed. Recombinant mouse NAPE-PLD was pre-treated with VU534, VU533, VU233 or vehicle for 30 min, then N-oleoyl-phosphatidylethanolamine (NOPE) was added for 90 min, and the resulting levels of OEA and NOPE was measured by LC/MS. […] To further characterize the effect of VU534 on NAPE-PLD activity, a Michaelis-Menten analysis was performed using recombinant mouse NAPE-PLD and graded concentrations of flame-NAPE, a selective NAPE-PLD fluorogenic substrate resistant to competing esterase activity.
Structure (SMILES),effect on efferocytosis by wild-type BMDM [1],effect on enzyme activation by 5 μM VU534 ([2]; graded concentrations with 5 μM VU534 (FIG. 19C)),effect on NAPE-PLD activity in primary BMDM [3],"effect on efferocytosis by Napepld−/− (KO) BMDM ([1]; 6 h, KO BMDM (FIG. 21C))","effect on efferocytosis by WT BMDM in WT versus KO experiment ([1]; 6 h, WT BMDM (FIG. 21C))","effect on catalytic rate (kcat) of NAPE-PLD ([4]; Example 9, FIG. 10)","K1/2 of NAPE-PLD ([4]; with VU534 (vehicle 12.4 μM), flame-NAPE) [µM]","maximal velocity of NAPE-PLD ([4]; with VU534 (vehicle 227 RFU/min), flame-NAPE) [RFU/min]","increase of Nape-pld activity ([2]; 5 μM, in the absence of LEI-401) [fold]"
O=C(Nc1nc2ccccc2s1)C1CCN(S(=O)(=O)c2ccc(F)c(Cl)c2)CC1 [VU233],modestly reduced efferocytosis,suppress the enzyme activation of 5 μM VU534 in a concentration-dependent manner,,,,,,,
"Cc1cc(C)c2sc(NC(=O)C3CCN(S(=O)(=O)c4ccc(F)cc4)CC3)nc2c1 [VU534, N-(5,7-Dimethylbenzo[d]thiazol-2-yl)-1-((4-fluorophenyl)sulfonyl)piperidine-4-carboxamide]",increases efferocytosis capacity; also recorded: significantly enhanced efferocytosis,,increases NAPE-PLD activity,had no effect,significantly increased efferocytosis,"enhanced kcat (turnover number) without reducing the Michaelis-Menten constant, Km; also recorded: increases the catalytic rate",5.9,421,1.5
Cc1ccc(C)c2sc(NC(=O)C3CCN(S(=O)(=O)c4ccc(F)cc4)CC3)nc12 [VU533],significantly enhanced efferocytosis,,,,,,,,
